The results in this text go back to patent US10730885B1, “Coumarin derivatives” (KING SAUD UNIVERSITY, priority 2019, dated 2020).

Values after ≈ are worked out from the molar mass of the structure shown. Where two headings read alike, the source gives them in different places.

In data set [1] the test system is Bacillus megaterium ATCC 9885. As to the kind of experiment: Agar well diffusion, primary antimicrobial screening. In kind it is cell-based. Conditions: Priestia megaterium, ATCC9885; B. megaterium ATCC 9885; 100 μL of 10 mg/ml in DMSO, 24 h; read-out: Inhibition Diameter Zone BM. From the text:
(§1) The newly synthesized compounds were individually tested for their in vitro antimicrobial activity against the standard bacteria strains of American Type Culture Collection (ATCC), namely, Staphylococcus aureus ATCC 29213, Bacillus subtilis ATCC 6633, Bacillus megaterium ATCC 9885 (Gram-positive), Escherichia coli ATCC 2592 and Pseudomonas aeruginosa ATCC 27953 (Gram-negative). In addition, they were microbiologically tested against the locally isolated Saccharomyces cerevisiae (yeast) and the standard strain of Agricultural Research Service Culture Collection (NRRL) of the yeast like pathogenic fungus Candida albicans NRRL Y-477. The primary screening was carried out using the agar well diffusion method using nutrient agar (NA) medium and Sabourand dextrose agar (SDA) medium for pathological tested bacteria and yeast, respectively.
(§2) Antimicrobial tests were carried out by the agar well diffusion method using 100 μL of suspension containing 1×10^8 CFU/mL of pathological tested bacteria and 1×10^6 CFU/ml of yeast spread on NA and SDA, respectively. After the media was cooled and solidified, wells (10 mm in diameter) were made in the solidified agar and loaded with 100 μL of tested compound solution prepared by dissolving 10 mg of the chemical compound in one ml of dimethyl sulfoxide (DMSO). The inculcated plates were then incubated for 24 h at 37° C. for bacteria and yeast. Negative controls were prepared using DMSO employed for dissolving the tested compound. Ciprofloxacin (10 mg/ml) and ketoconazole (10 mg/ml) were used as standard for antibacterial and antifungal activity, respectively. After incubation time, antimicrobial activity was evaluated by measuring the zone of inhibition against the test organisms and compared with that of the standard. Antimicrobial activities were expressed as inhibition diameter zones in millimeters (mm). The experiment was carried out in triplicate and the average zone of inhibition was calculated.

In data set [2] the test system is Bacillus subtilis ATCC 6633. Described as above. Type of data set: cell-based. Conditions: for zone of inhibition at 10000 µg/mL: Bacillus subtilis, ATCC6633, B. subtilis ATCC 6633, 100 μL of 10 mg/ml in DMSO, 24 h, read-out: Inhibition Diameter Zone BS; for antibacterial activity compared with reference drug: B. subtilis.
Source text: as §1, §2

The next data set deals with trypsin. Nature of the data set: Proteinase inhibitory activity (trypsin/casein). Type of data set: biochemical. The conditions noted are these: for % Inhibition of proteinase activity: 250 μg/ml, mean ± SD (n = 3). As for the experimental part:
For proteinase inhibitory activity, the reaction mixture (2 ml) contained 0.06 mg trypsin, 20 mM Tris HCl buffer (pH 7.4) and 1 ml test sample (250 μg/ml for each compound). The mixture was incubated for 5 min and then 1 ml of 0.8% (w/v) casein was added. The mixture was incubated for an additional 20 min. 1 ml of 10% perchloric acid was added to arrest the reaction. The cloudy suspension was centrifuged, and the absorbance of the supernatant was read at 280 nm. Reference standard compound aspirin was used as the positive control for this assay. The experiment was performed in triplicate. Percentage inhibition of […] was calculated by using the following formula:
[formula] where Acontrol is the absorbance of the control reaction and Atest is the absorbance of the control reaction with sample.

A short description of data set [3]: DPPH microplate radical scavenging antioxidant assay. Conditions: for IC50: DPPH, 30 min, mean ± SD (n = 3); for antioxidant activity: overview. Type of data set: biochemical. Here is the method: The antioxidant activity of the synthesized compounds was measured in terms of hydrogen-donating or radical scavenging ability using the DPPH microplate-based method. Absorbance measurement was obtained using Microplate/cuvette reader (Spectramax M5, Molecular Devices, California, USA). Reference standard compound ascorbic acid was used as the positive control for this assay at concentrations ranging from 1.563 to 200 μg/mL. Test samples were prepared at a starting concentration of 200 μg/mL after mixing with 100 μl of 0.2 mM DPPH methanolic solution. A series of concentrations were tested for the samples in order to determine the 50% inhibitory concentration (IC50). Samples were incubated with DPPH in the dark for 30 min at room temperature (25° C.). The DPPH solution in methanol was prepared daily and stored in a flask covered with aluminum foil. DPPH radicals have an absorption maximum (λmax) at 515 nm, in which the absorbance values were measured and converted into percentage of antioxidant activity.
Methanolic DPPH solution without antioxidant was applied as control and background control was samples in methanol only. IC50 was determined using Graphpad Prism 7 (Graphpad Software Inc. CA, USA). The percentage inhibition was calculated by using the formula:
The assay was carried out in triplicate and performed as much as possible in an area protected against light. The data points are presented as the mean±standard deviation (SD) (n=3).
In general terms: The DPPH test is a chemical assay of radical scavenging.

Data set [4] relates to Saccharomyces cerevisiae (local isolate). Nature of the data set: Agar well diffusion, primary antimicrobial screening. In kind it is cell-based. The conditions noted are these: for zone of inhibition at 10000 µg/mL: Saccharomyces cerevisiae, 24 h, read-out: Inhibition Diameter Zone SC.
Source text: as §1, §2
Background: A growth-free zone around the sample is the usual read-out of agar diffusion tests.

Data set [5] deals with Candida albicans NRRL Y-477. The description is as above. In kind it is cell-based. The conditions noted are these: for zone of inhibition at 10000 µg/mL: Candida albicans, NRRLY477, C. albicans NRRL Y-477, 100 μL of 10 mg/ml in DMSO, 24 h, read-out: Inhibition Diameter Zone CA; for antifungal activity compared with reference drug: C. albicans.
Source text: as §1, §2

The subject of data set [6] is Staphylococcus aureus ATCC 29213. The data set is described as above. Type of data set: cell-based. The conditions noted are these: S. aureus.
Source text: as §1, §2

The next data set relates to tested microorganisms. Nature of the data set: Agar well diffusion, summary over the tested microorganisms. In kind it is cell-based. Conditions: against one or more microorganisms.
Source text: as §1, §2

In data set [7] the test system is Escherichia coli ATCC 2592. Nature of the data set: Agar well diffusion, primary antimicrobial screening. Type of data set: cell-based. The conditions noted are these: E. coli.
Source text: as §1, §2

The mark [8] stands for this setting: S. cerevisiae local isolate, 100 μL of 10 mg/ml in DMSO.

Take `Cc1ccc2oc(=O)c3c(c2c1)OC(N)=C(C(N)=O)C3c1ccco1` (racemic) [Compound 6b, (±)-2-amino-4-(furan-2-yl)-9-methyl-5-oxo-4H,5H-pyrano[3,2-c]chromene-3-carboxamide]: the melting point (as a rule, the temperature of the solid-liquid transition) was in the range of 202 to 204 °C. In data set [1], the zone of inhibition at 10000 µg/mL was less than 15 mm. For the same compound, the zone of inhibition at 10000 µg/mL in data set [2] is less than 15 mm. Besides, the “in vitro anti-proteinase activity compared with aspirin” value with trypsin is on record as “more potent”. In the data set on trypsin (listed as 6h), the “% Inhibition of proteinase activity” value is 49.28 ± 10.93%. Further, in [3], the 50% inhibitory concentration (IC50) (in general, the concentration that gives 50% inhibition) was 48.38 ± 4.61 µg/mL (≈ 143 µM).
`Cc1ccc2oc(=O)c3c(c2c1)OC(N=CN(C)C)=C(C#N)C3c1ccco1` (racemic) [Compound 7b, (±)-N′-(3-cyano-4-(furan-2-yl)-9-methyl-5-oxo-4H,5H-pyrano[3,2-c]chromen-2-yl)-N,N-dimethylformimidamide]: the melting point lay within 273 to 275 °C. Besides, in [4], the zone of inhibition at 10000 µg/mL was less than 15 mm. Further, the zone of inhibition at 10000 µg/mL in data set [1] was less than 15 mm. In data set [2], the zone of inhibition at 10000 µg/mL is less than 15 mm. In addition, the zone of inhibition at 10000 µg/mL in data set [5] was less than 15 mm. The “% Inhibition of proteinase activity” value with trypsin is listed as 33.17 ± 2.79%. Also, in data set [3], the IC50 result is “— ((—): inactive (IC50 > 200 μg/mL))”.
With `Cc1ccc2oc(=O)c3c(c2c1)OC(N=Cc1ccccc1)=C(C#N)C3c1ccco1` (racemic) [Compound 8b, (±)-2-(benzylideneamino)-4-(furan-2-yl)-9-methyl-5-oxo-4H,5H-pyrano[3,2-c]chromene-3-carbonitrile], the melting point lay in the range of 250 to 252 °C.
Consider `O=C1O[C@H]([C@@H](O)CO)C(O)=C1O` [Ascorbic acid, ascorbic acid, reference compound], for which the half-inhibitory concentration (IC50) in [3] was found to be 2.83 ± 0.166 µg/mL (≈ 16.1 µM).
In the case of `CC(=O)Oc1ccccc1C(=O)O` [Aspirin, aspirin, reference compound], in the data set on trypsin, the “% Inhibition of proteinase activity” value came to 45.83 ± 4.21%.
As to `O=C(O)c1cn(C2CC2)c2cc(N3CCNCC3)c(F)cc2c1=O` [Ciprofloxacin, reference compound], the zone of inhibition at 10000 µg/mL in [4] (setting [8]) and in [5] was less than 15 mm in each case.
`NS(=O)(=O)c1ccc(NS(=O)(=O)c2c(O)c3cc(Cl)ccc3oc2=O)cc1` [Compound 10a, 6-Chloro-4-hydroxy-2-oxo-N-(4-sulfamoylphenyl)-2H-chromene-3-sulfonamide] had a melting point of 245 to 247 °C. Besides, the “antibacterial activity compared with ciprofloxacin” value in data set [6] is “equal to ciprofloxacin”. Further, in data set [2], the “antibacterial activity compared with reference drug” value was “comparable antibacterial activities to the standard”. For the same compound, the “% Inhibition of proteinase activity” value in the data set with trypsin turned out to be 18.78 ± 2.05%. Besides, in the data set on tested microorganisms, the “antimicrobial activity compared with standard antimicrobials (ciprofloxacin and ketoconazole)” value was “equal to or higher than the standard antimicrobials”. Besides, in data set [3], the IC50 was 93.12 ± 0.727 µg/mL (≈ 216 µM).
Compound `O=c1oc2ccc(Cl)cc2c(O)c1S(=O)(=O)Nc1ccc(S(=O)(=O)Nc2nccs2)cc1` [Compound 10e, 6-chloro-4-hydroxy-2-oxo-N-(4-(N-(thiazol-2-yl)sulfamoyl)phenyl)-2H-chromene-3-sulfonamide] had a melting point of 215 to 217 °C. In addition, in [3], the half-maximal inhibitory concentration (IC50) was 71.67 ± 3.231 µg/mL (≈ 139 µM).
`O=c1oc2ccc(Cl)cc2c(O)c1S(=O)(=O)Nc1ccccc1` [Compound 11a, 6-Chloro-4-hydroxy-2-oxo-N-phenyl-2H-chromene-3-sulfonamide] displayed a melting point of 337 to 339 °C. For the same compound, the “antifungal activity compared with reference drug” value in data set [5] was “higher antifungal activity”. Also, in the data set on trypsin, the “in vitro anti-proteinase activity compared with aspirin” value was “as potent” and the “% Inhibition of proteinase activity” value is 44.7 ± 8.22%. Moreover, in the data set on tested microorganisms, the “antimicrobial activity compared with standard antimicrobials (ciprofloxacin and ketoconazole)” value is “equal to or higher than the standard antimicrobials”. Besides, in data set [3], the IC50 turned out to be 14.51 ± 1.827 µg/mL (≈ 41.2 µM) and the “antioxidant activity” value was “particularly high antioxidant activity”.
Consider `Cc1ccc2oc(=O)c(S(=O)(=O)Nc3ccccc3)c(O)c2c1` [Compound 11b, 4-Hydroxy-6-methyl-2-oxo-N-phenyl-2H-chromene-3-sulfonamide], for which the melting point fell in the range of 324 to 325 °C. Also, the “% Inhibition of proteinase activity” value in the data set on trypsin is on record as 14.3 ± 2.21%. In data set [3], the half-maximal inhibitory concentration (IC50) is 19.25 ± 4.171 µg/mL (≈ 58.1 µM) and the “antioxidant activity” value is “particularly high antioxidant activity”.
The compound `Cc1ccc2oc(=O)c(S(=O)(=O)Nc3ccc(C(=O)/C=C/c4ccc([N+](=O)[O-])cc4)cc3)c(O)c2c1` [Compound 12b, (E)-4-hydroxy-6-methyl-N-(4-(3-(4-nitrophenyl)acryloyl)phenyl)-2-oxo-2H-chromene-3-sulfonamide] returned a melting point of 220 to 222 °C. Besides, the IC50 result in [3] was “— ((—): inactive (IC50 > 200 μg/mL))”.
In turn, `Cc1ccc2oc(=O)c(S(=O)(=O)Nc3ccc(C(=O)/C=C/c4ccc(Cl)cc4)cc3)c(O)c2c1` [Compound 12d, (E)-N-(4-(3-(4-chlorophenyl)acryloyl)phenyl)-4-hydroxy-6-methyl-2-oxo-2H-chromene-3-sulfonamide] displayed a melting point of 141 to 143 °C. In addition, the “antibacterial activity compared with ciprofloxacin” value in data set [7] is listed as “higher antibacterial activity than ciprofloxacin”. For the same compound, the “antibacterial activity compared with ciprofloxacin” value in [6] was “equal to ciprofloxacin”. Moreover, the “antimicrobial activity compared with ketoconazole” value in data set [4] (S. cerevisiae) is “higher than that of the corresponding control drug”. The zone of inhibition at 10000 µg/mL in data set [4] (setting [8]) came out at 32 mm. For the same compound, the “antibacterial activity compared with reference drug” value in data set [2] is “comparable antibacterial activities to the standard”. Moreover, in data set [5], the “antifungal activity compared with reference drug” value was “higher antifungal activity”. For the same compound, the “% Inhibition of proteinase activity” value with trypsin was 31.88 ± 3.82%. Also, the “antimicrobial activity compared with standard antimicrobials (ciprofloxacin and ketoconazole)” value with tested microorganisms is listed as “equal to or higher than the standard antimicrobials”. In [3], the IC50 entry is “— ((—): inactive (IC50 > 200 μg/mL))”.
`COc1ccc(/C=C/C(=O)c2ccc(NS(=O)(=O)c3c(O)c4cc(Cl)ccc4oc3=O)cc2)cc1` [Compound 12e, (E)-6-chloro-4-hydroxy-N-(4-(3-(4-methoxyphenyl)acryloyl)phenyl)-2-oxo-2H-chromene-3-sulfonamide] came in with a melting point greater than 300 °C. The “% Inhibition of proteinase activity” value in the data set on trypsin stood at 22.83 ± 4.88%. Further, the IC50 entry in [3] is “— ((—): inactive (IC50 > 200 μg/mL))”.
Compound `COc1ccc(/C=C/C(=O)c2ccc(NS(=O)(=O)c3c(O)c4cc(C)ccc4oc3=O)cc2)cc1` [Compound 12f, (E)-4-hydroxy-N-(4-(3-(4-methoxyphenyl)acryloyl)phenyl)-6-methyl-2-oxo-2H-chromene-3-sulfonamide] returned a melting point greater than 300 °C. Moreover, in the data set with trypsin, the “% Inhibition of proteinase activity” value is recorded as 21.7 ± 7.6%. Further, the 50% inhibitory concentration (IC50) entry in [3] is “— ((—): inactive (IC50 > 200 μg/mL))”.
